From patent US10253356B2, “Visualizing modified nucleotides and nucleic acid interactions in single cells” (SIGMA-ALDRICH CO. LLC, priority 2014, dated 2019)

Columns and labels:
[1] = test system: SW480 cells; assay: Cytotoxic effects (cell shape) seen in drug-treated cells during ISH-PLA imaging; assay type: cell-based, human; conditions: 500 nM for 24 hours, a few drug treated cells
Protocol: Human cancer cells, i.e., DU145 (metastatic cancer; origin in prostrate migrated to brain) or SW480 (colon cancer), were grown in DMEM (Dulbecco's Modified Eagle's Medium) supplemented with 10% FBS and Pen/Strep antibiotics, and seeded ( 10^4 cells) per well of 8-well culture chambered coverglass plates (with silicone gasket). The cells were washed twice with HBSS, and then fixed with 4% paraformaldehyde solution (40 μL/well, 16% paraformaldehyde stock diluted 1:4 in 1×PBS) for 30 minutes at room temperature (RT). The crosslinking was stopped by adding 5 μL/well of 1.25M Glycine, and incubating at RT for 5 minutes. The cells were permeabilized by incubation for 1 hour at RT with permeabilization buffer (0.75% Tween 20 and 0.75% Triton X-100 in 1×PBS). The cells were rinsed with 1×PBS. For detection of 5-meC DNA, the cells were treated with 4 N HCL for 10 minutes at RT. The cells were washed with 1×PBS for 30 min at RT. The cells were treated for 1 minute with pre-warmed (37° C.) 0.25% Trypsin-EDTA solution, and the trypsin was inactivated by incubating for 2 minutes in pre-warmed (37° C.) quenching solution (i.e., DMEM supplemented with 10% FBS and 3 mg/mL BSA). The cells were washed with 1×PBS and blocked with an in situ hybridization blocking solution for 1 hour at RT.

[2] = test system: SEPTIN 9 promoter methylation in SW480 cells; assay: ISH-PLA visualization of SEPTIN 9 promoter methylation after drug treatment; assay type: cell-based, human; conditions: SW480 colon cancer cells, 500 nM for 24 hours, SEPTIN 9 probe set (ii), FIG. 5
Protocol: With this aim, a protocol was developed to perform in-situ hybridization followed by proximity ligation assay (PLA) (a.k.a., DUOLINK®, Sigma-Aldrich) and cell imaging to visualize DNA-methylation (5 meC) on the SEPTIN 9 promoter. […] The PLA assay was performed using anti-biotin and anti-5 meC antibodies, corresponding (+ and −) PLA probes, and Far Red detection reagents.
Human cancer cells, i.e., DU145 (metastatic cancer; origin in prostrate migrated to brain) or SW480 (colon cancer), were grown in DMEM (Dulbecco's Modified Eagle's Medium) supplemented with 10% FBS and Pen/Strep antibiotics, and seeded (˜10^4 cells) per well of 8-well culture chambered coverglass plates (with silicone gasket). The cells were washed twice with HBSS, and then fixed with 4% paraformaldehyde solution (40 μL/well, 16% paraformaldehyde stock diluted 1:4 in 1×PBS) for 30 minutes at room temperature (RT). The crosslinking was stopped by adding 5 μL/well of 1.25M Glycine, and incubating at RT for 5 minutes. The cells were permeabilized by incubation for 1 hour at RT with permeabilization buffer (0.75% Tween 20 and 0.75% Triton X-100 in 1×PBS). The cells were rinsed with 1×PBS. For detection of 5-meC DNA, the cells were treated with 4 N HCL for 10 minutes at RT. The cells were washed with 1×PBS for 30 min at RT. […]

Nc1ncn([C@@H]2O[C@H](CO)[C@@H](O)[C@H]2O)c(=O)n1 [5-Azacytidine]
cytotoxic effects (altered cellular shape) [1]: cytotoxic effects in terms of altered cellular shape
SEPTIN 9 promoter methylation (nuclear ISH-PLA signal) [2]: Loss of this nuclear ISH-PLA signal
SEPTIN 9 promoter methylation (nuclear ISH-PLA signal) ([2]; listed as 5-AzaC): diminished
